Assay [1] has as its system anti-CD3-induced T-cell proliferation (PBMC). Put plainly: Anti-CD3-induced T-cell proliferation. It is filed as cell-based, human. Particulars: anti-CD3 1 ng/mL. Here is the method: Anti-T cell receptor (TCR)/CD3 induced T cell proliferation
PBMC of a healthy volunteer were cultured in 96-well microtiter plates at 2×10^5 cells/well. […] Cultures were incubated for 3 days at 37° C. in a 5% CO2 incubator. Proliferative response was determined by incorporation of ^3 H-thymidine.
Anti-CD3 mAb was used at 1 ng/mL concentration.

Assay [2] relates to skin graft rejection (Balb/C tail skin on C57BL/6 mice). Kind of assay: Skin graft survival in mice. The assay is classed as in vivo, mouse. The method, then:
Effect of HE-33 on Skin-Grafting
Balb/C and C57BL/6 mice are genetically histoincompatible in that Balb/C is of haplotype H-2^d whereas C57BL/6 is of haplotype H-2^b. The surgical procedure used in these experiments was performed according to the procedures reported by Matriano, J. E. et al. (J. Immunol., 1996, 156:4114-4119).
Mice in groups 4 and 5 were orally administered HE-33 daily from 2 days prior to grafting. Rejection was assessed by observing redness and dryness of the graft (Natriano, J. E. et al., J. Immunol., 1996, 153:1505-1514). At a dose of 100 mg/kg I.V., HE-33 prolonged graft survival by approximately 4 days.
C57BL/6 mice were grafted with tail skin from Balb/c mice. Drug treatment
was started two days prior to grafting. Casts were removed on day 6 and
survival of the graft was scored everyday. Rejection was defined on chang
in thickness, dryness and >80% redness of the graft.

The subject of a further assay is IL-10. Kind of assay: IL-10 production in PHA-stimulated PBMC cultures. More on the design: % Inhibition of IL-10 production: concentration or dose not given beside the values. It is filed as cell-based, human. The method, then:
Production of autocrine growth factors (IL-2, IL-4, IL-10 and Interferon-gamma) in PHA-stimulated human PBMC cultures
Culture supernatants were collected at the times indicated and frozen at -20° C. At the end of 96 hr., all supernatants were assayed by enzyme immunoassay for the presence of the cytokines: interleukin-2, -4, -10 and interferon (IFN)-gamma. Results were expressed in pg/mL concentration of cytokine and % inhibition of cytokine production.

As a reminder, the inhibition is the drop in the measured response relative to a control, in per cent.

Turning to `CCCN(CCC)c1ncnc2c1ncn2[C@@H]1O[C@@H]2COP(=O)(O)O[C@H]2[C@H]1O` [HE-33, N^6,N^6 -di-n-Propyl-c-AMP], the Proliferation in assay [1] (10 μM) is reported as 289 CPM; in assay [1] (100 μM), 43 CPM. Further, the inhibition at 10 µM in assay [1] (Homo sapiens, T-cell, 10 μM) is 77%. Testing at 100 µM in assay [1] (Homo sapiens, T-cell, 100 μM) gave an inhibition of 97%. Also, the “Mean Survival Time” value in assay [2] (50 mg/kg (I.V.)) was determined as 10.25 days; in assay [2] (100 mg/kg (I.V.)), 13.4 days; in assay [2] (200 mg/kg (oral)), 9.2 days; in assay [2] (400 mg/kg (oral)), 9.8 days. In addition, the “Prolongation of graft survival” value in assay [2] (100 mg/kg I.V.) is listed as “approximately 4 days”. In addition, the “% Inhibition of IL-10 production” value with IL-10 (24 hours) is recorded as 21%; with IL-10 (48 hours), 0%; with IL-10 (72 hours), 0%; in the assay on IL-10 (96 hours), 0%. Besides, the IL-10 production is 441 pg/mL in the assay with IL-10 (24 hours), 1304 pg/mL in the assay on IL-10 (48 hours), 790 pg/mL in the assay with IL-10 (72 hours) and 991 pg/mL in the assay on IL-10 (96 hours).

(Values after patent US5968912A, “Methods for immunosuppressing” (Immune Modulation, Inc., priority 1997, dated 1999).)
